Test results reported in patent US20260041629A1, “Methods and Systems to Reduce Injury in Treated Tissues” (MileHigh Repro Solutions, LLC, priority 2022, published 2026).

Columns and labels:
boar sperm = assay: Experiment 2: compatibility with sperm in vitro (motility by computer assisted sperm analyzer); type: cell-based; conditions: exposure 3 hours, 37° C
Description: A successful cervical softening agent should be safe for a mammal's tissues and also for sperm used to inseminate the mammal. It was anticipated that the cervical tract and the AI rod will each retain a residue of the solution treatment which may then combine with the semen inside the cervix or uterus. Therefore, experiments were performed using sperm samples from boars to evaluate the toxicity of each proposed treatment and blends.
Extended boar sperm doses (28×10^6/ml; 1 ml) were incubated with each of the miscible solutions at 3 concentrations, 0.1 μL, 0.5 μL, or 1 μL per 1 mL extended sperm, then the sperm with the solution were incubated for 3 hours at 37° C. Motility characteristics were measured via computer assisted sperm analyzer. This experiment was replicated 4 times.

ewe cervices = assay: Experiment 1: in vitro efficacy of solution, AI rod passage through excised cervical tracts; conditions: ¼ cc rod, tracts treated 1 hour, * = statistically significant improvement over control
Description: Ewe and bison cervical tracts were obtained to assess local responses in living tissue thereby modeling in vivo response to a solution. Tracts were treated for 1 hour with the respective solution using an absorbent matrix applicator, then ¼ cc AI rods were passed through the cervix, mimicking trans-cervical artificial insemination. A total of […] tracts were utilized with each of 13 treatments tested in 11 replicates. The estimated number of rings passed was recorded. Post-treatment tracts were dissected, then length and cervical anatomy were recorded, and relationships between cervical structure, ring number and position were and analyzed. Ring passage data was transformed into a percentage of rings passed to normalize the data and to allow comparison across an undefined variety of tissues, breeds, ages, and other etiological differences. A paired T-test indicated trends in increased passage of AI rod (P=0.064) when treating the cervix versus control.

## CCCC[N+]1(C)[C@@H]2C[C@@H](OC(=O)[C@H](CO)c3ccccc3)C[C@H]1[C@@H]1O[C@@H]12 (stereo partly shown) [Extract F, hyoscine butylbromide]
Boar sperm; dose 0.1 μL in 1 mL sperm
  Sperm motility, motile percentage of the total number of spermatozoa: 90.7%
Boar sperm; dose 0.5 μL in 1 mL sperm
  Sperm motility, motile percentage of the total number of spermatozoa: 93.3%
Boar sperm; dose 1 μL in 1 mL sperm
  Sperm motility, motile percentage of the total number of spermatozoa: 91.8%
Ewe cervices
  Avg. % Cervical rings passed: 50.02* %
